# Data taken from US20110015226A1, “Treatment of Energy Utilization Disease” (SUMMIT CORPORATION PLC, priority 2008, published 2011).
# Legend:
# Type in all cases: biochemical
# [1] = molecular target: T1, N-acetyl-β-D-glucosaminidase (A. oryzae) (Aspergillus oryzae, UniProt Q8J2T0); experiment: Glycosidase inhibition: N-acetyl-β-D-glucosaminidase (A. oryzae); conditions: compounds tested at 0.8 mM
# T1 construct: purchased Sigma
# Text: (§1) The results tabulated below were obtained using commercially available glycosidases and p-nitrophenyl-substrates using standard methods described for example by Watson et al (1997) Phytochemistry 46 255-259. All enzymes and substrates were bought from Sigma. Enzyme and substrate solutions were made using sodium phosphate buffers at the pH optima values. The enzymes used were α-D-glucosidase Saccharomyces cerevisiae, Bacillus stearothermophilus, Oryzae sativa), β-D-glucosidase (Almond), α-D-mannosidase (Jack bean), α-D-galactosidase (Green coffee beans), β-D-galactosidase (Bovine liver), α-L-fucosidase (Bovine kidney), N-acetyl-β-D-glucosaminidase (Bovine kidney, Jack bean, Aspergillus oryzae), Naringinase (Penicillium decumbens) and amyloglucosidase (Aspergillus niger). All enzymes were used with the appropriate p-nitrophenyl substrates (5 mM). Amyloglucosidase activity was measured using amylopectin (0.1%) (Merck) mixed with sodium phosphate buffer, pH 4.5 in a glass bottle, and healed in a boiling water bath for 20 minutes to dissolve with released glucose measured using ‘Trinder’ glucose detection solution (Sigma).
# (§2) All enzymes and para-nitrophenyl substrates were purchased from Sigma, with the exception of beta-mannosidase which came from Megazyme. Enzymes were assayed at 27° C. in 0.1M citric acid/0.2M disodium hydrogen phosphate buffers at the optimum pH for the enzyme. The incubation mixture consisted of 10 μl enzyme solution, 10 μl of 1 mg/ml aqueous solution of extract and 50 μl of the appropriate 5 mM para-nitrophenyl substrate made up in buffer at the optimum pH for the enzyme. The reactions were stopped by addition of 70 μl 0.4M glycine (pH 10.4) during the exponential phase of the reaction, which had been determined at the beginning using uninhibited assays in which water replaced inhibitor. Final absorbances were read at 405 nm using a Versamax microplate reader (Molecular Devices). Assays were carried out in triplicate, and the values given are means of the three replicates per assay. (See Watson, A. A., Nash, R. J., Wormald, M. R., Harvey, D. J., Dealler, S., Lees, E., Asano, N., Kizu, H., Kato, A., Griffiths, R. C., Cairns, A. J. and Fleet, G. W. J. (1997). Glycosidase-inhibiting pyrrolidine alkaloids from Hyacinthoides non-scripta. Phytochemistry 46 (2): 255-259.)
# [2] = molecular target: T2, α-D-galactosidase Green coffee bean (Coffea arabica, UniProt Q42656); experiment: Glycosidase inhibition: α-D-galactosidase Green coffee bean; conditions: compounds tested at 0.8 mM
# T2 construct: α-D-galactosidase (Green coffee beans); purchased Sigma; host or cells: green coffee beans
# Text: as §1, §2
# [3] = molecular target: T3, α-D-mannosidase Jack bean (Canavalia ensiformis, UniProt C0HJB3); experiment: Glycosidase inhibition: α-D-mannosidase Jack bean; conditions: compounds tested at 0.8 mM
# T3 construct: α-D-mannosidase (Jack bean); purchased Sigma
# T3 sequence (C0HJB3 1-981): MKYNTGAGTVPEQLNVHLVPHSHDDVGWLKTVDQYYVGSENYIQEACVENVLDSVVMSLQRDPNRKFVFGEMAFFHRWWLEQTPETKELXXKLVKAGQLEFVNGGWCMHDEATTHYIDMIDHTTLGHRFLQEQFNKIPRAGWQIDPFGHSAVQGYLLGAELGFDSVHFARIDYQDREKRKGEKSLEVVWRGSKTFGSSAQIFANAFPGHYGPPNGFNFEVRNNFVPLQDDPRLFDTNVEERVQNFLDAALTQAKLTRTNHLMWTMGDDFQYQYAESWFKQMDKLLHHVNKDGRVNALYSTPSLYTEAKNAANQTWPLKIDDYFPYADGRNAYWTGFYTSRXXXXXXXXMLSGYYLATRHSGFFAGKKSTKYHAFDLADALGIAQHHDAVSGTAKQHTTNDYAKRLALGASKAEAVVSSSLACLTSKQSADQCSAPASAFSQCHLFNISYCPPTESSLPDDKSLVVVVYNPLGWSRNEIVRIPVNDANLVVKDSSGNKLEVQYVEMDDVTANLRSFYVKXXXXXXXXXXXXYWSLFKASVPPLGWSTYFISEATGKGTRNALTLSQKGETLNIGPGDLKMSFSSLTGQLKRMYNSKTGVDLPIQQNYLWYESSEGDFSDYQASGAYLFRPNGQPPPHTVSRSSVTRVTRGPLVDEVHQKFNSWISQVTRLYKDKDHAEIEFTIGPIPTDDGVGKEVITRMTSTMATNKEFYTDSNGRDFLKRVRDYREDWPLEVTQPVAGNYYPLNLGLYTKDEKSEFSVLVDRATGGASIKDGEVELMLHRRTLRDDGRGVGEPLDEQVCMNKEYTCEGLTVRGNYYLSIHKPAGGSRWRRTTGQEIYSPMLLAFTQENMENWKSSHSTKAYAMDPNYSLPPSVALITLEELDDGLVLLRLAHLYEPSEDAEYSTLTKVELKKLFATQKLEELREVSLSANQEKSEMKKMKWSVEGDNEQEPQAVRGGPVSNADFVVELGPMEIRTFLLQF
# [4] = molecular target: T4, α-L-fucosidase Bovine kidney (Bos taurus, UniProt Q2KIM0); experiment: Glycosidase inhibition: α-L-fucosidase Bovine kidney; conditions: compounds tested at 0.8 mM
# T4 construct: α-L-fucosidase (Bovine kidney); purchased Sigma; host or cells: bovine kidney
# T4 sequence (Q2KIM0 23-468): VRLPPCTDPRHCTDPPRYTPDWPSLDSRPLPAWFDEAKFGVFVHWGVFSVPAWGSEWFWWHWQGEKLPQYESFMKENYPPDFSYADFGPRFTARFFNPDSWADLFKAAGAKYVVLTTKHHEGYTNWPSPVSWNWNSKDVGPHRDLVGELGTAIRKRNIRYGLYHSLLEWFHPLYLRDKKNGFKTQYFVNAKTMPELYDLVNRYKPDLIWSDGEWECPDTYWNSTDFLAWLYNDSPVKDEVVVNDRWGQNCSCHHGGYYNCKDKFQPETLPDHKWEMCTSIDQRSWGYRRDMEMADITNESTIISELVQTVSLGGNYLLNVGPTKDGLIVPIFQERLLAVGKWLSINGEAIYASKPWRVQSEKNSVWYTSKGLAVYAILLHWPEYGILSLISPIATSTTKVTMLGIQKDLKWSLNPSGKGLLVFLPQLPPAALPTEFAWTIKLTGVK
# α-D-glucosidase (Rice) = molecular target: T5, α-D-glucosidase (Rice) (Oryza sativa subsp. japonica, UniProt Q653V7); experiment: Glycosidase inhibition: α-D-glucosidase (Rice)
# T5 construct: purchased Sigma
# [5] = molecular target: α-D-glucosidase (Bacillus) (Geobacillus stearothermophilus, UniProt A0ACH1E9U3); experiment: Glycosidase inhibition: α-D-glucosidase (Bacillus); conditions: compounds tested at 0.8 mM
# Text: as §1, §2
# [6] = molecular target: T6, Amyloglucosidase Aspergillus niger (Aspergillus niger, UniProt P69328); experiment: Glycosidase inhibition: Amyloglucosidase Aspergillus niger; conditions: compounds tested at 0.8 mM
# T6 construct: purchased Sigma
# Text: as §1, §2
# [7] = molecular target: T7, β-Glucuronidase Bovine liver (Bos taurus, UniProt A3KMY8); experiment: Glycosidase inhibition: β-Glucuronidase Bovine liver; conditions: read-out: IC50 against mammalian glucuronidase;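 note: bovine liver β-glucuronidase acting on p-nitrophenyl β-D-glucuronide substrate in citric acid/disodium hydrogen phosphate buffer, pH 5.0, 27 °C, mean of triplicate runs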
# T7 construct: The assay involved the use of Bovine liver β-glucuronidase; purchased Sigma; host or cells: bovine liver
# T7 sequence (A3KMY8 1-652): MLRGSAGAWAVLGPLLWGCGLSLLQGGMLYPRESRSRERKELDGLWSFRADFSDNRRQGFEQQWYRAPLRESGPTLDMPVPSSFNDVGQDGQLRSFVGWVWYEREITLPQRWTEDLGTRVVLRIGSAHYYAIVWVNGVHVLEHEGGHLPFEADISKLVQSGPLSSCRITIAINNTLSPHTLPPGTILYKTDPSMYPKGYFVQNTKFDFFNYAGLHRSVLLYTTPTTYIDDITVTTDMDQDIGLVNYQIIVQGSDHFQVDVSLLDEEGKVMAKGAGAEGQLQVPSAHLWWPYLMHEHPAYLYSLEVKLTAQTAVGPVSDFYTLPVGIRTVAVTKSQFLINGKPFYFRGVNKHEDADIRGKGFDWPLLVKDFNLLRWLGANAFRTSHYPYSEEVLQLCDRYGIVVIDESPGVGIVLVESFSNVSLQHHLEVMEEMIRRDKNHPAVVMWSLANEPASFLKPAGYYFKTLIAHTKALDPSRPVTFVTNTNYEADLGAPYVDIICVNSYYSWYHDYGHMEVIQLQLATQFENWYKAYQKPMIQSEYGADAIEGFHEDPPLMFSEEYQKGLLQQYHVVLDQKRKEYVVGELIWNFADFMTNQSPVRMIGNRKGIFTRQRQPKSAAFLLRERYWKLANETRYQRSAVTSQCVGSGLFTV
# [8] = tested on: N-acetyl-β-D-glucosaminidase (Bovine kidney); experiment: Glycosidase inhibition: N-acetyl-β-D-glucosaminidase (Bovine kidney);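 note: enzyme activity followed by cleavage of the matching p-nitrophenyl glycoside (5 mM) in phosphate buffer set to the enzyme's optimal pH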
# α-D-glucosidase (Yeast) = molecular target: T8, α-D-glucosidase (Yeast) (Saccharomyces cerevisiae, UniProt P53341); experiment: Glycosidase inhibition: α-D-glucosidase (Yeast); conditions: compounds tested at 0.8 mM
# T8 construct: purchased Sigma
# Text: as §1, §2
# [9] = molecular target: rabbit intestinal maltase; experiment: Rabbit disaccharidase inhibition assay: maltase; conditions: NI: no inhibition at 0.8 mM
# Description: (§3) Sucrose (8.3 mM), maltose (5 mM) and isomaltose (6.3 mM) substrates were made using 0.2 M Macllvaine (citrate-phosphate) buffer, pH 6.0. The glucose detection reagent was prepared according to the supplier's instructions (Megazyme Ltd). Linearity of the timecourse of the reaction between the glucose detection reagent and glucose was tested using a series of glucose dilutions.
# (§4) The method for preparation of mammalian small intestine mucosal disaccharidases was based on Griffiths (1998), omitting ammonium sulphate fractionation steps. The small intestine was dissected out of a female wild rabbit, and opened longitudinally using a scalpel. The mucosal layer was scraped off using the edge of a clean microscope slide, and placed into 3 ml of dH2O. The mucosal layer suspension was centrifuged at around 1000 rpm for 30 seconds to sediment tissue debris. The supernatant ([…]) was removed, and centrifuged again at 3500 rcf for 1 minute to remove fine particulates from suspension. The supernatant was diluted to give 0.2-0.25 mg/ml protein and stored at −30° C.
# (§5) Enzyme assays were carried out using 5-15 μl of enzyme preparation, 5 μl of test compound (or dH2O for controls) and 15-25 μl of substrate solution. Reactions were covered using a sheet of plate sealing film, and incubated at 37° C. for 60 minutes. Glucose (from disaccharide hydrolysis) was quantified by adding 200 μl of glucose detection reagent and incubating the reactions for a further twenty-five minutes. Absorbance was measured at 510 nm against control blanks.
# [10] = molecular target: T9, rabbit intestinal sucrase (Oryctolagus cuniculus, UniProt P07768); experiment: Rabbit disaccharidase inhibition assay: sucrase; conditions: NI: no inhibition at 0.8 mM
# T9 construct: The small intestine was dissected out of a female wild rabbit; from tissue; host or cells: small-intestinal mucosa of a female wild rabbit
# Description: as §3, §4, §5
# [11] = molecular target: T10, rabbit intestinal isomaltase (Oryctolagus cuniculus, UniProt P07768); experiment: Rabbit disaccharidase inhibition assay: isomaltase; conditions: NI: no inhibition at 0.8 mM
# T10 construct: The small intestine was dissected out of a female wild rabbit; from tissue; host or cells: small-intestinal mucosa of a female wild rabbit
# Description: as §3, §4, §5
# T5 sequence (Q653V7 34-885): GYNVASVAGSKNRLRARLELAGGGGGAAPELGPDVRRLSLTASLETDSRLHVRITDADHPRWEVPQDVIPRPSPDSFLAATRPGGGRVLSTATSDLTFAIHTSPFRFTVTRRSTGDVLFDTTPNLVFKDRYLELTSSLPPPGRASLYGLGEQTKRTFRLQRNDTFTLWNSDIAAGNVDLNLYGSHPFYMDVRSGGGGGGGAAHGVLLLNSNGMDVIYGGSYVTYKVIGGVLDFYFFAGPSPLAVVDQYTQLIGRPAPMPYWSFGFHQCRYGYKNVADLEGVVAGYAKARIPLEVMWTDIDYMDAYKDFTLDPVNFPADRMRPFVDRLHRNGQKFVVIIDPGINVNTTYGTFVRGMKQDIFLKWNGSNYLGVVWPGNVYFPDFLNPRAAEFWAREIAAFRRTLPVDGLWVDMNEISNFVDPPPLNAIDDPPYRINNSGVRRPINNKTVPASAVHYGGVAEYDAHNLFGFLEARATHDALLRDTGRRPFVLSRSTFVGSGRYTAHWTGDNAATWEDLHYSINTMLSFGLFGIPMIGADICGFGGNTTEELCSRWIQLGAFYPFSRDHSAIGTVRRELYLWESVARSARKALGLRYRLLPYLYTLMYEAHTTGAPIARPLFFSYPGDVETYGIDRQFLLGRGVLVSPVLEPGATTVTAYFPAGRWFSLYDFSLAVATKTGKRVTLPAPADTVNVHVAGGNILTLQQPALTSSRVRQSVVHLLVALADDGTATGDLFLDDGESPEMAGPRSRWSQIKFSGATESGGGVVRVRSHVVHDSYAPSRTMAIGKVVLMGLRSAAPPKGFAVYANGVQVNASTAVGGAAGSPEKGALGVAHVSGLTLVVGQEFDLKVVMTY
# T8 sequence (P53341 whole entry): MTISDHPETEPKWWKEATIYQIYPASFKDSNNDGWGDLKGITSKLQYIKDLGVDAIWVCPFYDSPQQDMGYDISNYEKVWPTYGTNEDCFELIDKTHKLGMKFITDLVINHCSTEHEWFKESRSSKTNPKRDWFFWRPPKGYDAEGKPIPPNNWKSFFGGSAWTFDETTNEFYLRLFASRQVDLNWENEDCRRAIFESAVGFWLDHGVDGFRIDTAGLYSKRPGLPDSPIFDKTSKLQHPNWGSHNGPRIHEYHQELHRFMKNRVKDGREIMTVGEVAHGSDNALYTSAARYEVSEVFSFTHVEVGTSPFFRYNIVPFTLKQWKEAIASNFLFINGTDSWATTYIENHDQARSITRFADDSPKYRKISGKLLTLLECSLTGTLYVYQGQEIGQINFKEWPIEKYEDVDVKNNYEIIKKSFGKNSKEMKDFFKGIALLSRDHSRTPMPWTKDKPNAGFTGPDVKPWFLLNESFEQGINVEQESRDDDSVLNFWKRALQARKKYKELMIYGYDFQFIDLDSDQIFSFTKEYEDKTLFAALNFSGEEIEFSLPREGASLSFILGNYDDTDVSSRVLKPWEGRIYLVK
# T2 sequence (Q42656 16-378): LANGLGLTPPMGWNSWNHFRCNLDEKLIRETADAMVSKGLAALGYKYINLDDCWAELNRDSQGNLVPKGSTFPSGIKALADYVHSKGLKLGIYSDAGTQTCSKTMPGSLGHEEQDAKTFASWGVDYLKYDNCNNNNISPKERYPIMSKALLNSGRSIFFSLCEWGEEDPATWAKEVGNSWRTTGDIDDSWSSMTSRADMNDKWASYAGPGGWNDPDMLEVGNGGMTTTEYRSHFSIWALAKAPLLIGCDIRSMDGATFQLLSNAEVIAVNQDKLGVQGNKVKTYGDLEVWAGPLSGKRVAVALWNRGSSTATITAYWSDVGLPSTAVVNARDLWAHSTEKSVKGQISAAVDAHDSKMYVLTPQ
# T1 sequence (Q8J2T0 97-600): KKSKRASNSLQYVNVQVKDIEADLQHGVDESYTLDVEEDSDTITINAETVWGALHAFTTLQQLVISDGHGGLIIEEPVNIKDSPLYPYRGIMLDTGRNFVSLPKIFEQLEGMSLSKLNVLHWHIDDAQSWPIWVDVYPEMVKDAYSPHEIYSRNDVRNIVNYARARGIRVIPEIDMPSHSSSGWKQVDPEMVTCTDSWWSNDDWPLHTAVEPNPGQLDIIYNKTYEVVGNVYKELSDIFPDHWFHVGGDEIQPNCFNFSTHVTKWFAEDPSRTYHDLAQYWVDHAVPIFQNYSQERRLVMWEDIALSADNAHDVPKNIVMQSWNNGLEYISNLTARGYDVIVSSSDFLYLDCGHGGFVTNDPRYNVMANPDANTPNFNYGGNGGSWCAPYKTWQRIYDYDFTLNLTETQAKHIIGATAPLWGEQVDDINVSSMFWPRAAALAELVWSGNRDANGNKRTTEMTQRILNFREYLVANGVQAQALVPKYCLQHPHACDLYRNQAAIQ
# α-D-glucosidase (Bacillus), sequence (A0ACH1E9U3 entry or part of it): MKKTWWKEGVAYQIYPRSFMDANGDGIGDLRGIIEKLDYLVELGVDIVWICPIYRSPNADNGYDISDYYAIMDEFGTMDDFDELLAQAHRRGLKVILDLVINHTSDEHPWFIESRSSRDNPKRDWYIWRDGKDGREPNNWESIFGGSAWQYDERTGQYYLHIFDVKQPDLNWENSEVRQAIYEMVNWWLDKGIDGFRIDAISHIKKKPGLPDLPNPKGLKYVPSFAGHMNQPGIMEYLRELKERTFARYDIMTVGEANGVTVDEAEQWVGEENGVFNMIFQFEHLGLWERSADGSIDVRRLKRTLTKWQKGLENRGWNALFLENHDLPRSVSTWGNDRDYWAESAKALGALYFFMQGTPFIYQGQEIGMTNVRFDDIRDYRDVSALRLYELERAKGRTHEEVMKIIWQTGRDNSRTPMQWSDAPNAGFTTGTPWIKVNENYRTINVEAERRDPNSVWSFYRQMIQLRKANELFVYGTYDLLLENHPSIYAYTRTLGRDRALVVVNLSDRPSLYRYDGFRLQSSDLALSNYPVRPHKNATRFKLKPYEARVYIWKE
# T6 sequence (P69328 25-640): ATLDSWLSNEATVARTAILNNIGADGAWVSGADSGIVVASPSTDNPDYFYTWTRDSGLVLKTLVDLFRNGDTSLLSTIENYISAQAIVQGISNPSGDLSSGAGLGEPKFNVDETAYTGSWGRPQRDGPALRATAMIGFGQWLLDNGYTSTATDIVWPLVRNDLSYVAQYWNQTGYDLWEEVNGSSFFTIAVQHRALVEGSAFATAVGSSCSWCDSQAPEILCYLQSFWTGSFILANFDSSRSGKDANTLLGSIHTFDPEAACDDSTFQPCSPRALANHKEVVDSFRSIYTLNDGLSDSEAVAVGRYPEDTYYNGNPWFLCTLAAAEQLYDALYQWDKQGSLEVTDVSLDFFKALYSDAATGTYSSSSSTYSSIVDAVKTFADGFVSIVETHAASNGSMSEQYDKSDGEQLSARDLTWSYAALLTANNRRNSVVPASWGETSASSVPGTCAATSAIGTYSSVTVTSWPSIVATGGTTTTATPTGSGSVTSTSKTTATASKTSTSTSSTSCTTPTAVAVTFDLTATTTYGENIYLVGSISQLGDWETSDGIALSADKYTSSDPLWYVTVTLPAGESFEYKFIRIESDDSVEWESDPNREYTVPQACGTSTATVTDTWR
Structure (SMILES),inhibition at 800 µM [1],inhibition at 800 µM [2],inhibition at 800 µM [3],inhibition at 800 µM [4],inhibition at 800 µM (α-D-glucosidase (Rice); compounds tested at 0.8 mM),"IC50 (α-D-glucosidase (Rice); read-out: IC50, α-D-glucosidase (Rice))",inhibition at 800 µM [5],inhibition at 800 µM [6],IC50 [7],"% inhibition, N-acetyl-β-D-glucosaminidase (Bovine kidney) ([8]; compounds tested at 0.8 mM)",IC50 ([8]; read-out: IC50 against mammalian 6-N-acetylglucosaminidase (hexosaminidase)),inhibition at 800 µM (α-D-glucosidase (Yeast)),IC50 [9],IC50 [10],IC50 [11]
"O=C(O)[C@@H]1[C@@H](O)[C@H](O)[C@@H](O)CN1CCO [Compound T3, (2S,3R,4R,5S)-3,4,5-Trihydroxy-1-(2-hydroxyethyl)piperidine-2-carboxylic acid]",< 50%,< 50%,< 50%,< 50%,67.2%,259 µM,< 50%,< 50%,60 µM,82.0%,12.2 µM,< 50%,,,
"CCCCN1C[C@H](O)[C@@H](O)[C@H](O)[C@H]1CO [Zavesca, N-butyl-DNJ, reference compound]",,,,,,,,,,,,,0.97 µM,0.22 µM,0.19 µM
